Test results taken from PubChem BioAssay (NCI).
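Cultured in 96-well plates, cells were exposed to test compound for 48 hours across five concentrations. TGI denotes the concentration required for complete inhibition of growth.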

Experiments:
Assay in all cases: growth of human tumour cells (NCI), 48 h
786-0 renal = tested on: 786-0 renal
BT-549 breast = tested on: BT-549 breast
CAKI-1 renal = tested on: CAKI-1 renal
CCRF-CEM leukemia = tested on: CCRF-CEM leukemia
COLO 205 colon = tested on: COLO 205 colon
DU-145 prostate = tested on: DU-145 prostate
EKVX NSCLC = tested on: EKVX NSCLC
HT29 colon = tested on: HT29 colon
K-562 leukemia = tested on: K-562 leukemia
KM12 colon = tested on: KM12 colon
NCI-H23 lung = tested on: NCI-H23 lung
OVCAR-4 ovarian = tested on: OVCAR-4 ovarian
OVCAR-5 ovarian = tested on: OVCAR-5 ovarian
RPMI-8226 leukemia = tested on: RPMI-8226 leukemia
SF-268 CNS = tested on: SF-268 CNS
SK-MEL-28 melanoma = tested on: SK-MEL-28 melanoma
SN12C renal = tested on: SN12C renal
UACC-257 melanoma = tested on: UACC-257 melanoma

Row | SMILES | TGI (786-0 renal) [µM] | TGI (BT-549 breast) [µM] | TGI (CAKI-1 renal) [µM] | TGI (CCRF-CEM leukemia) [µM] | TGI (COLO 205 colon) [µM] | TGI (DU-145 prostate) [µM] | TGI (EKVX NSCLC) [µM] | TGI (HT29 colon) [µM] | TGI (K-562 leukemia) [µM] | TGI (KM12 colon) [µM] | TGI (NCI-H23 lung) [µM] | TGI (OVCAR-4 ovarian) [µM] | TGI (OVCAR-5 ovarian) [µM] | TGI (RPMI-8226 leukemia) [µM] | TGI (SF-268 CNS) [µM] | TGI (SK-MEL-28 melanoma) [µM] | TGI (SN12C renal) [µM] | TGI (UACC-257 melanoma) [µM]
1 | CCOc1cc(-c2nc3cc(F)ccc3s2)ccc1O | 29.6 | 30.2 | 32.2 | 18 | 34.6 | 32.2 | 24.4 | 34.8 | 25.9 | 36 | 33.8 | 43.2 | 33.3 | 29.6 | 31.2 | 43.1 | 35.6 | 31
2 | CC1(C)OC2OC(COC(=O)c3ccc(C#N)cc3)C3OC(C)(C)OC3C2O1 (configuration not stated) | > 75 | > 75 | > 75 | > 75 | > 75 | > 75 | > 75 | > 75 | > 75 | > 75 | > 75 | > 75 | > 75 | > 75 | > 75 | > 75 | > 75 | > 75
3 | Cc1cc(NS(=O)(=O)c2ccc(Nc3c4ccccc4nc4c(C(=O)NCCO)cccc34)cc2)no1 | > 100 | 40.3 | 88.2 | 75.2 | > 100 | > 100 | > 100 | 78.8 | > 100 | 62.7 | > 100 | 86.7 | > 100 | 79.3 | > 100 | > 100 | > 100 | > 100
4 | CC(=O)c1c(O)n(-c2ccc(C)cc2)c(=O)c2c(N)n[nH]c12 | > 100 | > 100 | > 100 | > 100 | > 100 | > 100 | > 100 | > 100 | > 100 | > 100 | > 100 | > 100 | > 100 | > 100 | > 100 | > 100 | > 100 | > 100
5 | COc1cc(OC)c(C2(c3c(OC(C)C)c(=O)c3=O)SCCCS2)cc1OC | > 100 | > 100 | > 100 | > 100 | > 100 | > 100 | > 100 | > 100 | > 100 | > 100 | > 100 | > 100 | > 100 | > 100 | > 100 | > 100 | > 100 | > 100
6 | CCC(=O)Nc1ccc(NCC(=O)Nc2ccc(OC)cc2)cc1 | 46.4 | 51.6 | > 100 | > 100 | > 100 | > 100 | 70.7 | > 100 | > 100 | > 100 | 41.8 | 35.2 | 37.2 | 90.5 | 39.7 | > 100 | 37.5 | 64.2
7 | O=P1(Cc2ccccc2)c2ccccc2-c2ccccc21 | > 100 | 21.3 | 50.4 | > 100 | 17 | > 100 | > 73.1 | 27.1 | > 100 | 10.3 | 22.1 | 87.9 | 54.7 | 4.61 | > 100 | 24.6 | > 78.8 | 16
8 | CC(C)=C[C@@H]1O[C@H](O)[C@@H]([C@H]2CC[C@@]3(C)[C@@H]4CC[C@H]5C(C)(C)C(=O)CC[C@@]56C[C@@]46CC[C@]23C)[C@@H]1O | 27.6 | 39.8 | 31 | 24.1 | 43.3 | 29.6 | 33 | 24.1 | 38.4 | 34.9 | 32.9 | 35 | 57.8 | 12.7 | 39.4 | 42.5 | 38.2 | 31.6
9 | CN(C)N=Nc1ccc2[nH]c(=O)[nH]c2c1 | > 100 | > 100 | > 100 | > 100 | > 100 | > 100 | > 100 | > 100 | > 100 | > 100 | > 100 | > 100 | > 100 | > 100 | > 100 | > 100 | > 100 | > 100
10 | O=[N+]([O-])C(C(Cl)=C(Cl)Cl)=C(n1cncn1)n1cncn1 | 45.4 | 36 | 11.4 | 22 | 26.7 | 31.6 | 59.9 | 39.4 | > 100 | > 100 | 54.2 | 57 | 22.9 | 51.5 | 35.3 | > 95.9 | 26.9 | > 65.7
11 | N#Cc1c(-c2ccc([N+](=O)[O-])cc2)cc(-c2ccc(Nc3ccnc4cc(Cl)ccc34)cc2)nc1N | 3.02 | > 100 | 40.4 | 3.8 | > 66 | 33.2 | 38 | 8.86 | > 33.1 | 14.7 | 65.6 | 15.2 | 45.6 | 15 | 42.2 | > 100 | 17.6 | 62.3
12 | Nc1c2cc3ccc2nc2ccc(cc12)OCCOCCOCCOCCOCCOCCO3 | > 10 | > 10 | > 10 | > 10 | > 10 | > 10 | > 10 | > 10 | > 10 | > 10 | > 10 | > 10 | > 10 | > 10 | > 10 | > 10 | > 10 | > 10
13 | COc1cccc2cc(C(=O)NC34CC5CC(CC(C5)C3)C4)c(=N)oc12 | > 100 | > 100 | > 100 | > 65.2 | > 100 | > 100 | > 100 | > 100 | > 100 | > 100 | > 100 | > 100 | > 100 | > 77.9 | > 100 | > 100 | > 100 | > 100
14 | COc1ccc(C2C3=C(COC3=O)OC(C)(C)Oc3cc4c(cc32)OCO4)cc1OC (configuration not stated) | > 100 | 99.5 | > 100 | > 100 | 48.1 | > 100 | > 89.8 | > 100 | > 95.7 | 67.2 | > 100 | > 100 | > 100 | > 100 | > 31.6 | > 100 | > 100 | > 100
15 | C=CC[C@]1(C2=NC(C)(C)CO2)c2ccccc2-c2ccccc2[C@H]1C(C)=O | 24.9 | 37.1 | > 55 | 37.2 | 15 | 29.6 | 40.6 | 17.3 | 29.8 | 38.6 | > 45.3 | > 69 | 51 | 33.5 | 29.3 | > 54.5 | 30.8 | 24
16 | N#Cc1c(-c2ccccc2)cc(Nc2ccc(Cl)cc2)n2c1nc1ccccc12 | > 39.7 | > 100 | > 30.7 | > 94.7 | 2.8 | > 100 | > 46.7 | 11.4 | 8.21 | > 65.5 | > 100 | > 100 | > 50.9 | > 63.3 | > 100 | > 100 | > 32.2 | > 28.8
17 | C#C[C@]1(O)CC[C@H]2[C@@H]3CCC4=C/C(=N/OC(=O)c5cccc6c(=O)c7ccccc7[nH]c56)CCC4[C@H]3CC[C@@]21CC (some centres not stated) | > 39.6 | 87.8 | > 85 | > 54.1 | > 79.9 | > 100 | > 100 | > 50.7 | > 82.3 | > 100 | > 100 | > 100 | > 100 | 10.6 | > 100 | > 100 | > 100 | > 88.1
18 | CN(C)c1ccc(/C=C(\NC(=O)c2ccccc2)C(=O)NC(Cc2c[nH]c3ccccc23)C(=O)O)cc1 (configuration not stated) | > 100 | > 100 | > 100 | > 100 | > 100 | > 100 | > 100 | > 100 | > 100 | > 100 | > 100 | > 100 | > 100 | > 100 | > 100 | > 100 | > 100 | > 100
19 | COc1cc(S(=O)(=O)Nc2ccc(-c3csc(N4C(=O)C(Cl)C4c4cccs4)n3)cc2)ccc1Cl (configuration not stated) | 68.3 | > 100 | > 100 | 35.7 | > 100 | > 100 | > 100 | > 100 | > 100 | > 100 | > 100 | 77.5 | > 100 | > 100 | > 100 | > 100 | > 100 | > 100
